Laboratory results reported in EP4768477A1 (Yichang Humanwell Pharmaceutical Co., Ltd., priority 2024, dated 2025).
pEC50: −log10 of the molar value. Where no end group is shown, it is not given here.

Legend:
[1] = test system: gastrointestinal peristalsis; assay: Effect on gastrointestinal peristalsis (charcoal propulsion); conditions: 3 mg/kg, single subcutaneous injection, SD rats
[2] = test system: formalin-induced inflammatory pain model; set-up: species or system SD rats; conditions: rat, in vivo
hKOR = molecular target: T1, hKOR (Homo sapiens, UniProt P41145); assay: Agonistic function, cAMP method, 293-KOR cells; type: cell-based; conditions: forskolin
T1 construct: expressed in transfected cells; host or cells: Human embryonic kidney cells 293 (293-KOR)
T1 sequence (P41145 whole entry): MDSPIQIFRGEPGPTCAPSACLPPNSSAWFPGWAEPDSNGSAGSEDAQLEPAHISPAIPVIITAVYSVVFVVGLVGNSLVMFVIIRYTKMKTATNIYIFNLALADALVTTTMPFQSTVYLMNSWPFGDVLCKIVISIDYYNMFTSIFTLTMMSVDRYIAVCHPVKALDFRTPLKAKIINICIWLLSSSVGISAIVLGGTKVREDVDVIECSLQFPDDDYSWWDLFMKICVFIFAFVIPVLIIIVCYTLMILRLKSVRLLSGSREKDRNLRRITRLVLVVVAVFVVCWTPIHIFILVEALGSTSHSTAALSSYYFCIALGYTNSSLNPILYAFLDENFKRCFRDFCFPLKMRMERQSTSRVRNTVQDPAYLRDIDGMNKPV
Description: • a. […] Prepare 8 × drug-containing solution with buffe. • c. […] Incubate for 1 h at room temperature. • j.

Compound | effect on the gastrointestinal peristalsis in rats (charcoal propulsion rate) [1] | MPE% [2] [%] | pEC50 (hKOR) | Emax (hKOR) [%]
CN1CC[C@]23c4c5ccc(O)c4O[C@H]2[C@@H](O)C=C[C@H]3[C@H]1C5 [Morphine] | significant inhibitory effect | 75.9±28.9 |  | 
YGGFLRRIRP [Dynorphin A1-10] |  |  | 9.19 | 102
